Experiments:
uninfected MT2 cells = assay: Compound cytotoxicity, XTT-based colorimetric assay; assay type: cell-based; conditions: day 4, XTT assay
Summary of the method: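 Run under the antiviral-assay protocol but without virus. Viability was read on day 4 and CC50 values were derived from the readout.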

recombinant NL4-3 virus = assay: HIV cell culture assay (antiviral activity, luciferase readout); assay type: cell-based; conditions: MT-2 cells infected for 4-5 days with recombinant NL4-3 virus carrying Renilla luciferase, read-out: EC50
Summary of the method: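 MT-2 cells infected for 4-5 days with NL4-3 reference virus carrying Renilla luciferase in place of part of nef, in presence of serial compound dilutions. Luciferase read with live-cell substrate; EC50 from median effect equation fit.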

Row | Compound | CC50 (uninfected MT2 cells) | EC50 (recombinant NL4-3 virus)
1 | Cn1nc(NS(C)(=O)=O)c2c(Cl)ccc(-n3c([C@H](Cc4cc(F)cc(F)c4)NC(=O)Cn4nc(C(F)F)c5c4C(F)(F)[C@@H]4C[C@H]54)nc4nc(-c5cc(C(F)(F)F)nn5CC(C)(F)F)ccc4c3=O)c21 [Example 95, N-((S)-1-((3P)-3-(4-chloro-1-methyl-3-(methylsulfonamido)-1H-indazol-7-yl)-7-(1-(2,2-difluoropropyl)-3-(trifluoromethyl)-1H-pyrazol-5-yl)-4-oxo-3,4-dihydropyrido[2,3-d]pyrimidin-2-yl)-2-(3,5-difluorophenyl)ethyl)-2-((3bS,4aR)-3-(difluoromethyl)-5,5-difluoro-3b,4,4a,5-tetrahydro-1H-cyclopropa[3,4]cyclopenta[1,2-c]pyrazol-1-yl)acetamide] | > 100 nM | 0.25 nM
2 | Cn1nc(NS(C)(=O)=O)c2c(Cl)ccc(-n3c([C@H](Cc4cc(F)cc(F)c4)NC(=O)Cn4nc(C(F)F)c5c4C(F)(F)[C@@H]4C[C@H]54)nc4nc(-c5csc(S(C)(=O)=O)n5)ccc4c3=O)c21 [Example 93, N-((S)-1-((3P)-3-(4-chloro-1-methyl-3-(methylsulfonamido)-1H-indazol-7-yl)-7-(2-(methylsulfonyl)thiazol-4-yl)-4-oxo-3,4-dihydropyrido[2,3-d]pyrimidin-2-yl)-2-(3,5-difluorophenyl)ethyl)-2-((3bS,4aR)-3-(difluoromethyl)-5,5-difluoro-3b,4,4a,5-tetrahydro-1H-cyclopropa[3,4]cyclopenta[1,2-c]pyrazol-1-yl)acetamide] | > 100 nM | 0.056 nM

Source: patent US20220389007A1, “INHIBITORS OF HUMAN IMMUNODEFICIENCY VIRUS REPLICATION” (VIIV HEALTHCARE UK (No. 5) LIMITED, priority 2019, published 2022)
